Where two headings read alike, the source gives them in different places. Where a SMILES comes first, the peptide text is derived from it. [ ]: non-standard residue; d: D form. The star is where a group is joined. X1 = Nc1ncnc2c1ncn2[C@@H]1O[C@H](COP(=O)(O)OP(=O)(O)OP(=O)(O)SCC(=O)*)[C@@H](O)[C@H]1O; Phe(4-NH2) = Nc1ccc(C[C@H](N)C(=O)O)cc1; Dap = NC[C@H](N)C(=O)O
Tests used:
[1] = molecular target: activated recombinant IRK (insulin receptor kinase) (Homo sapiens, UniProt P06213); experiment: Steady-state kinetic analysis of IRK inhibition (kinase assay); assay type: biochemical; conditions: for binding energy: binding to IRK
Method: FIG. 2. […] Assays were carried out using activated recombinant IRK as described previously. 6 a, E/V vs. 1/ATP in the presence of varying. Conditions: fixed IRS727 concentration ([…]), 20 mM MgCl2, 0.5 mM DTT, 6 nM IRK, 0.05% bovine serum albumin, Tris-Acetate pH 7, 10 min reaction time. b, E/V vs. 1/IRS727 in the presence of varying. Conditions same as for a except fixed ATP ([…]), 8 nM IRK and 5 min reaction time.
v=Vm(S)/[Km(1+I/Ki)+S]; v=initial velocity, Vm=maximal velocity, S=substrate concentration, Km=Michaelis constant. […] Conditions: Incubation of […] +/−5 mM 2 for 10 min in reaction buffer (20 mM MgCl2, 0.5 mM DTT, 0.05% BSA, 50 mM Tris-Acetate, pH 7) then dilute 1:50 into reaction buffer containing 1 mM ATP and […] peptide6 IRS939 and measure conversion by HPLC at times shown. To determine koff, data were fit to the equation^17: […]
Assays were carried out using activated recombinant IRK as described previously^6. For E/V vs. 1/ATP plot the conditions were: […] IRS727 concentration, 20 mM MgCl2, 0.5 mM DTT, 6 nM IRK, 0.05% bovine serum albumin, 50 mM Tris-Acetate pH 7, 10 min reaction time. For E/V vs. 1/IRS727 in the conditions were the same except fixed ATP ([…]) was employed, 8 nM IRK and 5 min reaction time.
v=Vm(S)/[Km(1+I/Ki)+S]; v=initial velocity, Vm=maximal velocity, S=substrate concentration, Km=Michaelis constant.

[2] = molecular target: Csk (Homo sapiens, UniProt P41240); experiment: Inhibition of protein tyrosine kinase Csk; assay type: biochemical; conditions: read-out: Km (ATP)
Method: The specificity of inhibition was also tested by assaying 2 as an inhibitor of the protein tyrosine kinase Csk18. The peptide binding selectivity for Csk is quite different from IRK, and the IRS727 peptide moiety would be predicted to bind poorly to this enzyme^19. […] Thus the bisubstrate analog approach should allow for kinase selectivity based in part on peptide sequence.

[3] = molecular target: T1, recombinant mouse PKA (catalytic subunit) (Mus musculus, UniProt P05132); experiment: PKA inhibition assay (Calbiochem kit, Dixon plot); assay type: biochemical; conditions: preliminary assays
T1 construct: purchased Calbiochem
Method: Reagents from Calbiochem's Protein Kinase A kit were used to perform the inhibition assays and recombinant mouse PKA (catalytic subunit) was also purchased from Calbiochem (enzyme concentration was established by Bradford analysis). A 0.76 mM stock solution of kemptide-ATPγS conjugate was prepared and used to make serial dilutions into an aqueous MgCl2 solution (53 mM), producing a range of inhibitor concentrations from 144 uM to 1.4 μM with Mg2+ concentration of 47.7 mM. These were further diluted into water to produce a range of inhibitor solutions between 51 μM and 507 nM. An 11.25 μL aliquot from each of these solutions was pre-incubated with 7.5 μL of a 1.75 nM PKA enzyme solution (750 ug/uL bovine serum albumin) for 10 minutes at 30° C. after which 12.5 μL of pre-incubation mix was added to 12.5 μL of reaction mix (30 μM cold ATP, 50 μM biotinylated kemptide substrate, 0.04 uCi/μL γP-32 ATP, 80 mM Tris-HCl, 10 mM MgCl2, pH 7.5) to initiate the enzymatic reaction. […] The columns were placed in scintillation vials and radioactivity was measured using a scintillation counter.

[4] = Stability of compound in aqueous solution; assay type: physicochemical
Description: The protected peptide was assembled using solid-phase peptide synthesis using Fmoc chemistry, in which the single tyrosine of IRS727 was replaced with commercially available nitrophenylalanine. The nitro group was reduced with SnCl2 and the aniline function was bromoacetylated via standard coupling conditions. The peptide was cleaved from the resin and deblocked with trifluoroacetic acid, water, and thioanisole and purified by reversed phase HPLC. […] The peptide-ATP conjugate 2 was purified by reversed phase HPLC and characterized by electrospray mass spectrometry and 1H NMR.

Sequence of activated recombinant IRK (insulin receptor kinase) (P06213 1005-1310 limits assumed): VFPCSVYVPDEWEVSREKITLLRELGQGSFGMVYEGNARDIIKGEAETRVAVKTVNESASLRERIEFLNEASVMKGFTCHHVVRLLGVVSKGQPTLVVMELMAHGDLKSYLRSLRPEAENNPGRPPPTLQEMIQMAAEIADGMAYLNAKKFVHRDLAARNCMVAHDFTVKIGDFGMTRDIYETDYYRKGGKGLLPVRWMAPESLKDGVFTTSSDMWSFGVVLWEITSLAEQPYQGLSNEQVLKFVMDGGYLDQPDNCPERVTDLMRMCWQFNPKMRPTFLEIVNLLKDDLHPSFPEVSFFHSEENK
Sequence of Csk (P41240 whole entry, species assumed): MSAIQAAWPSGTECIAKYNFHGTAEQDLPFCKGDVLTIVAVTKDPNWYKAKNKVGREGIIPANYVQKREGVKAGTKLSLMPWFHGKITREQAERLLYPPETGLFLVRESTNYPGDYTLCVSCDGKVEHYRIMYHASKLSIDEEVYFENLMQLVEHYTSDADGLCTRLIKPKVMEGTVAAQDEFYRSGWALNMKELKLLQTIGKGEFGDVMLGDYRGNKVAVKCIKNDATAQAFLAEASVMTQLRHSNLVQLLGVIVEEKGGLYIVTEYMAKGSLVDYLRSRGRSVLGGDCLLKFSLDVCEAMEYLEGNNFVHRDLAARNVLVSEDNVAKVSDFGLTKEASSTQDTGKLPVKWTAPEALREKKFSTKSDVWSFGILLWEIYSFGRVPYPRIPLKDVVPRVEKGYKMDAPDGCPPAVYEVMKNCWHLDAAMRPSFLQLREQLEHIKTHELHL

Nc1ncnc2c1ncn2[C@@H]1O[C@H](COP(=O)(O)OP(=O)(O)OP(=O)(O)O)[C@@H](O)[C@H]1O [ATP, reference compound]
Km ([1]; substrates of IRK, read-out: Km app): 71 µM | Km [2]: 195 µM

CC(=O)N[C@@H](CC(C)C)C(=O)N[C@@H](CCCNC(=N)N)C(=O)N[C@@H](CCCNC(=N)N)C(=O)N[C@@H](C)C(=O)N[C@@H](CNC(=O)CSP(=O)(O)OP(=O)(O)OP(=O)(O)OC[C@H]1O[C@@H](n2cnc3c(N)ncnc32)[C@H](O)[C@@H]1O)C(=O)N[C@@H](CC(C)C)C(=O)NCC(=O)O [kemptide-ATPγS conjugate] (Ac-LRRA[Dap](X1)LG-OH)
inhibition of PKA (in words) [3]: inhibitory to PKA | Ki ([3]; reversible competitive inhibition model, read-out: calculated Ki versus ATP): 9.6 µM

adenosine 5′-O-3-thiotriphosphate [ATPγS, reference compound]
binding energy [1]: 5.1 kcal/mol | Ki ([1]; linear competitive versus ATP, read-out: Ki versus ATP): 210 µM

Nc1ncnc2c1ncn2[C@@H]1O[C@H](COP(=O)(O)OP(=O)(O)OP(=O)(O)SCC(=O)Nc2ccccc2)[C@@H](O)[C@H]1O [Compound 3]
Ki [1]: 114 µM | fold tighter binding than ATP-γS alone [1]: 2 fold | fold weaker as an inhibitor than 2 [1]: approximately 300 fold | mode of inhibition of IRK [1]: linear competitive inhibitor of IRK versus ATP

CSCC[C@H](NC(=O)[C@H](Cc1ccc(NC(=O)CSP(=O)(O)OP(=O)(O)OP(=O)(O)OC[C@H]2O[C@@H](n3cnc4c(N)ncnc43)[C@H](O)[C@@H]2O)cc1)NC(=O)[C@H](CC(=O)O)NC(=O)CNC(=O)[C@@H](NC(=O)[C@H](C)NC(=O)[C@@H]1CCCN1C(=O)[C@H](CC(C)C)NC(=O)[C@H](CCCCN)NC(=O)[C@H](CCCCN)NC(=O)[C@H](CCCCN)NC(C)=O)[C@@H](C)O)C(=O)N[C@@H](CC(N)=O)C(=O)N[C@@H](CCSC)C(=O)N[C@@H](CO)C(=O)N1CCC[C@H]1C(=O)N[C@H](C(=O)NCC(=O)N[C@@H](CC(=O)O)C(=O)O)C(C)C [Compound 2] (Ac-KKKLPATGD[Phe(4-NH2)](X1)MNMSPVGD-OH)
mode of inhibition of IRK [1]: linear competitive inhibitor versus both nucleotide (FIG. 2a) and peptide (FIG. 2b) substrates | binding energy [1]: 8.9 kcal/mol | half-life ([4]; acidic solution (pH 2), read-out: half life of decomposition (converted)): ~2 h | storage stability ([4]; frozen solution at −80° C. for several weeks): without detectable decomposition | time stable in aqueous solution ([4]; neutral pH, room temperature): > 12 h

Reference: patent publication US7045617B2, “Bisbubstrate inhibitors of kinases” (priority 2000, dated 2006)
